Results from patent publication US20250381269A1, “BISPECIFIC ANTIBODY BINDING EGFR AND B7-H3” (FORTVITA BIOLOGICS (SINGAPORE) PTE. LTD., priority 2022, published 2025).

What was measured:
LS180 = assay: Proliferation inhibition experiment, LS180 (CRC); assay type: cell-based; conditions: EGFR R521K, KRAS G12D
Procedure: • (1) NSCLC: plated at 1500-2500 cells/100 μL in a 96-well low-adsorption plate (Corning, CLS7007-24EA) for 3D cell culture, in which the following cell lines and specific amounts were used: • NSCLC: 2000 cells/100 μL/well • NCI-H292: Cell Bank of the Chinese Academy of Sciences, SCSP-582 • NCI-H322: Cobioer, CBP60134 • NCI-H1650: ATCC, CRL-5883 • NCI-H1975: ATCC, CRL-5908 • SK-MES-1: CoBioer, CBP60152 • NCI-H1703: ATCC, HTB-43 • PC9+hB7H3: constructed as described above • CRC and HNSCC: plated at 1500-2000 cells/100 μL in a 96-well white-bottom plate (NUNC, 136101) for 2D cell culture, in which the following cell lines and specific amounts were used: • CRC: 1500 cells/100 μL/well • CCK-81: CoBioer, CBP60581 • HT-55: CoBioer, CBP60012 • H508: CoBioer, CBP60795 • LS180: CoBioer, CBP60034 • HNSCC: 1500 cells/100 μL/well • TE-1: CoBioer, CBP60655 • Colo680: CoBioer, CBP60452. […]

H1650 = assay type: cell-based, human; conditions: EGFR Amplification Del19, KRAS WT, huPBMC:target 50:1, 8 h, LDH
Procedure: (§1) • (1) A CTS medium (Gibco, A3021002) was preheated at 37° C. huPBMC (Miaotong Biotechnology, PB 100C-W) was quickly thawed in a water bath, and then the cells were added slowly to 8 mL of CTS medium (containing 1% DNase). • (2) The mixture was centrifuged at 300 g for 8 min. The supernatant was removed, and the cells were resuspended in 30 mL of CTS (containing 10 μL of DNase), transferred to a T75 flask, and incubated in an incubator at 37° C. overnight. • (3) The suspension cells cultured overnight were taken and centrifuged at 300 g for 8 min. The supernatant was removed, and the cell density was adjusted with CTS. According to an effector/target ratio of effector cells (huPBMCs) to target cells (tumor cells in Table 5) of 50:1, huPBMCs and the tumor cells prepared in advance (Target: huPBMC=1.5E4/7.5E5 cells/well/100 μL) were plated in a 96-well low-adsorption plate (Corning. CLS7007-24EA). • (4) The diluted antibody drug was added to the corresponding cell well plate and cultured at 37° C. with 5% CO2 for 8 h. • (5) The mixture was centrifuged at 300 g for 5 min. 50 μL of the supernatant was transferred to a 96-well transparent flat-bottom plate ((NUNC, 136101), 50 μL of the LDH reagent (Promega, G1780) prepared in advance was added to the corresponding well plate, and the plate was left to stand at room temperature for 15-30 min in the dark. • (6) 50 μL LDH stop solution (Promega, G1780) was taken and detected by a multimode microplate reader (Molecular Devices, Spectra MAXi3) at 490 nm for readings.

H1703 = assay type: cell-based, human; conditions: EGFR Amplification, KRAS WT, huPBMC:target 50:1, 8 h, LDH
Procedure: as §1

H1975 = assay type: cell-based, human; conditions: EGFR L858R T790M, KRAS WT, huPBMC:target 50:1, 8 h, LDH
Procedure: as §1

H292 = assay type: cell-based, human; conditions: EGFR WT, KRAS WT, huPBMC:target 50:1, 8 h, LDH
Procedure: as §1

H322 = assay type: cell-based, human; conditions: EGFR WT, KRAS WT, huPBMC:target 50:1, 8 h, LDH
Procedure: as §1

H358 = assay type: cell-based, human; conditions: EGFR WT, KRAS G12C, huPBMC:target 50:1, 8 h, LDH
Procedure: as §1

SK-MES-1 = assay type: cell-based, human; conditions: EGFR Amplification, KRAS WT, huPBMC:target 50:1, 8 h, LDH
Procedure: as §1

[1] = system: NCI-H358 tumor-bearing mice; assay: Anti-tumor efficacy in NCI-H358 tumor-bearing mice, combination with AMG510; assay type: in vivo, NOG mice; conditions: NCI-H358, NOG mice, day 33; for Tumor volume (mm^3): antibodies 10 mg/kg i.p. Q3-4D x4 (h-IgG 20 mg/kg), AMG510 10 mg/kg intragastric QD x14; for Tumor growth inhibition (%): antibodies 10 mg/kg i.p. Q3-4D x4, AMG510 10 mg/kg intragastric QD x14, vs h-IgG 20 mg/kg
Procedure: SPF female NOG mice (purchased from Beijing Vital River Laboratory Animal Technology Co., Ltd.) with certificate No. 1100112211001153625 were used in the experiment.
NCI-H358 cells were routinely subcultured for the subsequent in-vivo experiment. The cells were collected by centrifugation. Then the NCI-H358 cells were resuspended in an equal-proportion mixture of PBS (1×) and Matrigel Matrix (Corning) to prepare a cell suspension with a cell concentration of 25×10^6 cells/mL. On day 0, 0.2 mL of the cell suspension was taken and subcutaneously inoculated to the right abdominal area of NOG mice to establish NCI-H358 tumor-bearing mouse models.
Six days after the tumor cell inoculation, the tumor volume in each mouse was measured. The mice were grouped (with 7 mice in each group).
Administration was performed on days 6, 9, 12, and 15 after the inoculation of NCI-H358 cells. Mice were monitored for tumor volume and body weight twice a week. […] Mice were monitored for tumor volume twice a week, and were monitored for body weight every day during the administration, and twice a week after the end of administration. […] On day 33 after the inoculation, the relative tumor growth inhibition (TG1%) was calculated by the following formula: TG1%=100%×(control group tumor volume−treatment group tumor volume)/(control group tumor volume−control group tumor volume before administration).
Tumor volume measurement: The maximum length of major axis (L) and maximum length of minor axis (W) of tumors were measured with a vernier caliper, and tumor volume was calculated by the following formula: V=L×W^2/2. The mice were weighed using an electronic balance.

Substance	Max inhibition (%) Mean ± SD (LS180)	EC50 (H1650)	EC50 (H1703)	EC50 (H1975)	EC50 (H292)	EC50 (H322)	EC50 (H358)	EC50 (SK-MES-1)	Tumor volume (mm^3) [1]	Tumor growth inhibition (%) [1]
zalutumumab [Zalu mAb]	41.0 ± 2.2%	0.571 nM	0.007 nM	0.118 nM	0.001 nM	0.014 nM	0.007 nM	0.014 nM	126 mm^3	111%
amivantamab [JNJ372]		0.427 nM		0.117 nM	0.004 nM	0.032 nM	0.03 nM	0.072 nM	196 mm^3	82%
